Source: patent publication US20210332083A1, “Netrin-1 Compounds and Compositions Thereof for Treating Pulmonary Hypertension” (The Regents of the University of California, priority 2018, published 2021)
Positions of bridges follow the written chain, without caps; N, C: chain ends. Non-standard residues stand in square brackets, D forms with d. No end group written: not given here. mini‑PEG = diethylene glycol

Tested on: hypoxia induced pulmonary hypertensive mice
Assay: Hemodynamic analysis (mPAP, RVSP by catheter) in hypoxia induced PH mice
Format: in vivo, C57BL/6 mice
Conditions: for mPAP (mmHg) / RVSP (mmHg): Mean ± SEM; for % Improvement (reduction in pressure/increase), RVSP / % Improvement (reduction in pressure/increase), mPAP: vs hypoxia w/o treatment; for % Reduction RVSP / % Reduction mPAP: Table 3, (negative control mmHg-netrin-1 compound)/(negative control mmHg); for mean pulmonary arterial pressure (mPAP) / right ventricular systolic pressure (RVSP): mice, 10% oxygen 21 days, 15 ng/day s.c. mini-osmotic pump, mean±SEM; for mean pulmonary arterial pressure (mPAP): hypoxia 40.54±4.473, normoxia 19.41±1.281; for right ventricular systolic pressure (RVSP): hypoxia 41.94±3.287, normoxia 32.20±1.884
Experimental: All animal experiments were approved by the Institutional Animal Care and Usage Committee at the University of California, Los Angeles (UCLA). […] groups of 9-12 weeks old male C57BL/6 mice (Charles River Laboratories, Wilmington, Mass.) were implanted using mini-osmotic pumps subcutaneously releasing the given netrin-1 compound (netrin-1, V1-9aa, V2-10aa, V3-11aa, V1P, V2P, V3P, V1S, V1T, V1D, V1C) at 15 ng/day, and the mice were housed under room air or 10% oxygen conditions in a normobaric chamber for 21 days. The hypoxic environment was maintained by continuous mixed gas flow (10% oxygen/90% nitrogen gas). The animals were fed and watered ad libitum, and cages were changed twice weekly. After the chamber was closed, the mixed gas was flushed to recover the hypoxic environment as quickly as possible. Animals were maintained at 20° C. with a 12:12-hour light-dark cycle. At the end of the treatment period, animals were anesthetized and hemodynamic analyses were performed by introducing 1.4 F catheter (Millar instruments, Houston, Tex.) into right ventricle and pulmonary artery. The right ventricular systolic blood pressure (RVSP) and the mean pulmonary arterial pressure (mPAP) were recorded using a Power Lab data acquisition system (ADInstruments Inc., CO).
All animal experiments were approved by the Institutional Animal Care and Usage Committee at the University of California, Los Angeles (UCLA). Eleven groups of 9-12 weeks old male C57BL/6 mice (Charles River Laboratories, Wilmington, Mass.) were implanted using mini-osmotic pumps subcutaneously releasing Netrin-1 derived peptides and modified peptides at 15 ng/day (Netrin-1, V1, V2, V3, V1P, V2P, V3P, V1S, V1T, V1D and V1C), and the mice were housed under room air or 10% oxygen conditions in a normobaric chamber for 21 days. The hypoxic environment was maintained by continuous mixed gas flow (10% oxygen/5% CO2 balanced with nitrogen gas). The animals were fed and watered ad libitum, and cages were changed twice weekly. After the chamber was closed, the mixed gas was flushed to recover the hypoxic environment as quickly as possible. Animals were maintained at 20° C. with a 12:12-hour light-dark cycle.
At the end of the treatment period, animals were anesthetized and hemodynamic analysis were performed by introducing 1.4 F catheter (Mikro-Tip® catheter-transducer; Model SPR-671, Millar instruments, Houston, Tex.) into both right and left ventricle and pulmonary artery. The right ventricular systolic blood pressure (RVSP), pulmonary arterial pressure (PAP), left ventricular systolic pressure (LVSP) and aortic pressure were recorded using a Power Lab data acquisition system (ADInstruments Inc., CO).

[1] = Table 2, n = 4-6, hypoxia w/o treatment 40.54 ± 4.473, normal control 19.41 ± 1.281
[2] = Table 2, n = 4-6, hypoxia w/o treatment 41.94 ± 3.281, normal control 32.20 ± 1.884
[3] = Table 2, printed over hypoxia-induced increase 9.74
[4] = Table 2, printed over hypoxia-induced increase 21.13
[5] = Table 1, n = 4-5, hypoxia w/o treatment 38.98 ± 1.747, normal control 32.20 ± 1.884
[6] = Table 1, n = 4-5, hypoxia w/o treatment 39.54 ± 5.341, normal control 19.41 ± 1.281
[7] = Table 1, hypoxia-induced increase 6.78
[8] = Table 1, hypoxia-induced increase 19.39

CDCRHNTAG [V1C] (disulfide 1-3)
mPAP (mmHg) [1]: 17.76 ± 1.403 mmHg | RVSP (mmHg) [2]: 26.80 ± 3.051 mmHg | reduction in pressure (of reduction in pressure/increase), RVSP [3]: > 9.74 | reduction in pressure (of reduction in pressure/increase), mPAP [4]: (>21.32/21.13) | % Improvement (reduction in pressure/increase), RVSP (Table 2): 100% | % Improvement (reduction in pressure/increase), mPAP (Table 2): 100% | % Reduction RVSP: 36% | % Reduction mPAP: 56% | mean pulmonary arterial pressure (mPAP): 17.76±1.403 mmHg | right ventricular systolic pressure (RVSP): 26.80±3.051 mmHg

CDCRHNTAG [V1-9aa] (Peptide based on human Netrin-1 sequence) [304-312 aa of human netrin-1]
RVSP (mmHg) [5]: 31.50 ± 3.321 mmHg | mPAP (mmHg) [6]: 23.83 ± 5.149 mmHg | reduction in pressure (of reduction in pressure/increase), RVSP [7]: (>6.78/6.78) | reduction in pressure (of reduction in pressure/increase), mPAP [8]: (15.97/19.39) | % Improvement (reduction in pressure/increase), RVSP (Table 1): 100% | % Improvement (reduction in pressure/increase), mPAP (Table 1): 81% | % Reduction RVSP: 19% | % Reduction mPAP: 40% | mean pulmonary arterial pressure (mPAP): 23.83±5.149 mmHg | right ventricular systolic pressure (RVSP): 31.50±3.321 mmHg

CPCKDGVTGIT (Peptide based on human Netrin-1 sequence) [V3-11aa, 423-433 aa]
RVSP (mmHg) [5]: 31.23 ± 1.773 mmHg | mPAP (mmHg) [6]: 29.35 ± 3.635 mmHg | reduction in pressure (of reduction in pressure/increase), RVSP [7]: (>6.78/6.78) | reduction in pressure (of reduction in pressure/increase), mPAP [8]: (10.19/19.39) | % Improvement (reduction in pressure/increase), RVSP (Table 1): 100% | % Improvement (reduction in pressure/increase), mPAP (Table 1): 53% | % Reduction RVSP: 20% | % Reduction mPAP: 26% | mean pulmonary arterial pressure (mPAP): 29.35±3.635 mmHg | right ventricular systolic pressure (RVSP): 31.23±1.773 mmHg

CLNCRHNTAG (Peptide based on human Netrin-1 sequence) [V2-10aa, 368-377 aa]
RVSP (mmHg) [5]: 33.10 ± 1.044 mmHg | mPAP (mmHg) [6]: 25.74 ± 3.788 mmHg | reduction in pressure (of reduction in pressure/increase), RVSP [7]: (5.88/6.78) | reduction in pressure (of reduction in pressure/increase), mPAP [8]: (13.8/19.39) | % Improvement (reduction in pressure/increase), RVSP (Table 1): 87% | % Improvement (reduction in pressure/increase), mPAP (Table 1): 71% | % Reduction RVSP: 15% | % Reduction mPAP: 35% | attenuation (inhibition) of RVSP increase (hypoxia-induced RVSP increase): 91% | mean pulmonary arterial pressure (mPAP): 25.74±3.788 mmHg | right ventricular systolic pressure (RVSP): 33.10±1.044 mmHg

(mini-PEG)-CPCKDGVTIGIT ({mini‑PEG}-CPCKDGVTIGIT; cysteine pairing not given here) [V3P]
mPAP (mmHg) [1]: 20.22 ± 1.304 mmHg | RVSP (mmHg) [2]: 29.27 ± 1.986 mmHg | reduction in pressure (of reduction in pressure/increase), RVSP [3]: > 9.74 | reduction in pressure (of reduction in pressure/increase), mPAP [4]: (20.32/21.13) | % Improvement (reduction in pressure/increase), RVSP (Table 2): 100% | % Improvement (reduction in pressure/increase), mPAP (Table 2): 96% | % Reduction RVSP: 30% | % Reduction mPAP: 50% | mean pulmonary arterial pressure (mPAP): 20.22±1.304 mmHg | right ventricular systolic pressure (RVSP): 29.27±1.986 mmHg

(mini-PEG)-CLNCRHNTAG ({mini‑PEG}-CLNCRHNTAG; cysteine pairing not given here) [V2P]
mPAP (mmHg) [1]: 27.39 ± 2.973 mmHg | RVSP (mmHg) [2]: 29.95 ± 1.661 mmHg | reduction in pressure (of reduction in pressure/increase), RVSP [3]: > 9.74 | reduction in pressure (of reduction in pressure/increase), mPAP [4]: (13.15/21.13) | % Improvement (reduction in pressure/increase), RVSP (Table 2): 100% | % Improvement (reduction in pressure/increase), mPAP (Table 2): 62% | % Reduction RVSP: 29% | % Reduction mPAP: 32% | mean pulmonary arterial pressure (mPAP): 27.39±2.973 mmHg | right ventricular systolic pressure (RVSP): 29.95±1.661 mmHg

(mini-PEG)-CDCRHNTAG ({mini‑PEG}-CDCRHNTAG; not fully specified (bridges); printed as (mini-PEG)-CDCRHNTAG; cysteine pairing not given here) [V1P]
mPAP (mmHg) [1]: 21.88 ± 3.020 mmHg | RVSP (mmHg) [2]: 30.95 ± 3.867 mmHg | reduction in pressure (of reduction in pressure/increase), RVSP [3]: > 9.74 | reduction in pressure (of reduction in pressure/increase), mPAP [4]: (18.66/21.13) | % Improvement (reduction in pressure/increase), RVSP (Table 2): 100% | % Improvement (reduction in pressure/increase), mPAP (Table 2): 88% | % Reduction RVSP: 26% | % Reduction mPAP: 46% | mean pulmonary arterial pressure (mPAP): 21.88±3.020 mmHg | right ventricular systolic pressure (RVSP): 30.95±3.876 mmHg

SDCRHNTAG (Peptide based on human Netrin-1 sequence) [V1S]
mPAP (mmHg) [1]: 16.58 ± 1.608 mmHg | RVSP (mmHg) [2]: 23.62 ± 0.518 mmHg | reduction in pressure (of reduction in pressure/increase), RVSP [3]: > 9.74 | reduction in pressure (of reduction in pressure/increase), mPAP [4]: (>21.32/21.13) | % Improvement (reduction in pressure/increase), RVSP (Table 2): 100% | % Improvement (reduction in pressure/increase), mPAP (Table 2): 100% | % Reduction RVSP: 44% | % Reduction mPAP: 59% | mean pulmonary arterial pressure (mPAP): 16.58±1.608 mmHg | right ventricular systolic pressure (RVSP): 23.62±0.518 mmHg

dCDCRHNTAdG ([dC]DCRHNTAG; cysteine pairing not given here) [V1D]
mPAP (mmHg) [1]: 22.89 ± 3.237 mmHg | RVSP (mmHg) [2]: 29.41 ± 3.876 mmHg | reduction in pressure (of reduction in pressure/increase), RVSP [3]: > 9.74 | reduction in pressure (of reduction in pressure/increase), mPAP [4]: (17.65/21.13) | % Improvement (reduction in pressure/increase), RVSP (Table 2): 100% | % Improvement (reduction in pressure/increase), mPAP (Table 2): 84% | % Reduction RVSP: 30% | % Reduction mPAP: 44% | mean pulmonary arterial pressure (mPAP): 22.89±3.237 mmHg | right ventricular systolic pressure (RVSP): 29.41±3.876 mmHg

TDCRHNTAG (Peptide based on human Netrin-1 sequence) [V1T]
mPAP (mmHg) [1]: 24.52 ± 2.686 mmHg | RVSP (mmHg) [2]: 29.03 ± 2.960 mmHg | reduction in pressure (of reduction in pressure/increase), RVSP [3]: > 9.74 | reduction in pressure (of reduction in pressure/increase), mPAP [4]: (16.02/21.13) | % Improvement (reduction in pressure/increase), RVSP (Table 2): 100% | % Improvement (reduction in pressure/increase), mPAP (Table 2): 76% | % Reduction RVSP: 31% | % Reduction mPAP: 40% | mean pulmonary arterial pressure (mPAP): 24.52±2.686 mmHg | right ventricular systolic pressure (RVSP): 29.03±2.960 mmHg
